Source: PubChem BioAssay (NCI)
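All cell lines were grown in 96-well plates and treated with compound for 48 hours. TGI denotes the concentration required for complete inhibition of growth.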

Assays:
Assay in all cases: NCI-60 cell line screen, 48 h
[1] = test system: OVCAR-4 ovarian
[2] = test system: HOP-92 NSCLC
[3] = test system: UACC-62 melanoma
[4] = test system: K-562 leukemia
[5] = test system: UACC-257 melanoma
[6] = test system: OVCAR-3 ovarian
[7] = test system: SK-MEL-5 melanoma
[8] = test system: CAKI-1 renal
[9] = test system: SN12C renal
[10] = test system: DU-145 prostate
[11] = test system: OVCAR-8 ovarian
[12] = test system: NCI-H522 lung
[13] = test system: TK-10 renal
[14] = test system: SNB-75 CNS
[15] = test system: CCRF-CEM leukemia
[16] = test system: SW-620 colon
[17] = test system: HL-60(TB) leukemia
[18] = test system: U251 CNS
[19] = test system: SF-268 CNS
[20] = test system: SK-MEL-28 melanoma
[21] = test system: RXF 393 renal
[22] = test system: LXFL 529 NSCLC
[23] = test system: MOLT-4 leukemia
[24] = test system: MALME-3M melanoma
[25] = test system: KM12 colon
[26] = test system: SF-539 CNS
[27] = test system: NCI-H23 lung
[28] = test system: A498 renal
[29] = test system: HOP-18 NSCLC
[30] = test system: OVCAR-5 ovarian
[31] = test system: 786-0 renal
[32] = test system: RPMI-8226 leukemia
[33] = test system: HCT-116 colon
[34] = test system: SR leukemia
[35] = test system: SF-295 CNS
[36] = test system: NCI-H460 lung
[37] = test system: NCI-H226 lung
[38] = test system: COLO 205 colon
[39] = test system: SK-OV-3 ovarian
[40] = test system: HCC-2998 colon
[41] = test system: SNB-19 CNS
[42] = test system: LOX IMVI melanoma
[43] = test system: UO-31 renal
[44] = test system: M19-MEL melanoma
[45] = test system: KM20L2 colon
[46] = test system: SK-MEL-2 melanoma
[47] = test system: IGROV1 ovarian
[48] = test system: HT29 colon
[49] = test system: DLD-1 colon
[50] = test system: A549 NSCLC
[51] = test system: HCT-15 colon
[52] = test system: M14 melanoma
[53] = test system: ACHN renal
[54] = test system: SNB-78 CNS

O/N=C1/CCCC/C1=C/C=C/c1ccccc1
TGI [1]: > 100 µM | TGI [2]: 36.7 µM | TGI [3]: 40.8 µM | TGI [4]: 96.1 µM | TGI [5]: 64 µM | TGI [6]: 35.2 µM | TGI [7]: 30.2 µM | TGI [8]: > 100 µM | TGI [9]: 33.4 µM | TGI [10]: 62.9 µM | TGI [11]: > 100 µM | TGI [12]: 34.1 µM | TGI [13]: 62 µM | TGI [14]: 75.3 µM | TGI [15]: 67 µM | TGI [16]: 77.1 µM | TGI [17]: 41.2 µM | TGI [18]: 32.3 µM | TGI [19]: 47.1 µM | TGI [20]: 10.2 µM | TGI [21]: 41.5 µM | TGI [22]: > 100 µM | TGI [23]: 67.1 µM | TGI [24]: 41 µM | TGI [25]: 47.1 µM | TGI [26]: 38.3 µM | TGI [27]: 60.5 µM | TGI [28]: 41.2 µM | TGI [29]: 78.1 µM | TGI [30]: 76 µM | TGI [31]: 55 µM | TGI [32]: 71.7 µM | TGI [33]: 29.7 µM | TGI [34]: > 100 µM | TGI [35]: 69.8 µM | TGI [36]: 53.8 µM | TGI [37]: 60.7 µM | TGI [38]: 35.4 µM | TGI [39]: > 100 µM | TGI [40]: 45.2 µM | TGI [41]: > 100 µM | TGI [42]: 31.3 µM | TGI [43]: 49.4 µM | TGI [44]: 43.8 µM | TGI [45]: 33.3 µM | TGI [46]: 36.6 µM | TGI [47]: 36.8 µM | TGI [48]: 32.9 µM | TGI [49]: > 100 µM | TGI [50]: 54.9 µM | TGI [51]: 36.2 µM | TGI [52]: 40.9 µM | TGI [53]: 72.5 µM | TGI [54]: 77.7 µM
